Laboratory results reported in paper PMC6222509, “Dibasic Derivatives of Phenylcarbamic Acid against Mycobacterial Strains: Old Drugs and New Tricks?” (Molecules : A Journal of Synthetic Chemistry and Natural …, 2018).
Converted amounts (≈) assume the structure as drawn. Where two headings read alike, the source gives them in different places.

Assays:
[1] = test system: M. tuberculosis H37Ra ATCC 25177 (MTa H37Ra); test: in vitro antimycobacterial MIC, 96-well Middlebrook broth, alamarBlue; format: cell-based, Mycobacterium tuberculosis; conditions: 7-day cultivation, read-out: MIC MTa H37Ra 7-d
Procedure: In vitro susceptibitity of given mycobacteria to reference drugs isoniazid (INH), ethambutol (EMB), ofloxacin (OFLX) or ciprofloxacin (CPX) was tested as well (Table 6 and Table 7).
A value of a minimum inhibitory concentration (MIC) was the lowest concentration of a tested compound, (i) which inhibited growth of MTv H37Rv, MK 235/80, MK 6509/96 and MA 330/80, respectively; (ii) at which no visible growth of MTa H37Ra, MS, MK DSM as well as MM was observed.
The molecules 1a–p were also in vitro screened against an avirulent M. tuberculosis H37Ra ATCC 25177 (MTa H37Ra), M. kansasii DSM 44162 (MK DSM), M. smegmatis ATCC 700084 (MS) and M. marinum CAMP 5644 (MM), respectively, in the Department of Infectious Diseases and Microbiology (Faculty of Veterinary Medicine, University of Veterinary and Pharmaceutical Sciences in Brno, Czech Republic).
Determination of a minimum inhibitory concentration (MIC) against MTa H37Ra. The mycobacterium was grown on Middlebrook broth (MB; MiddleBrook Pharmaceuticals, Inc., Westlake, TX, USA), supplemented with Oleic-Albumin-Dextrose-Catalase (OADC) supplement (Difco, Lawrence, KS, USA) and salicylate-derived mycobactin J (2 μg/mL; Allied Monitor Inc., Fayette, MO, USA), an iron-binding siderophore.
At log phase growth, a culture sample (10 mL) was centrifuged at 15,000 rpm/20 min using a bench top centrifuge MPW-65R (MPW Med Instruments, Warsaw, Poland). Following removal of the supernatant, a pellet was washed in fresh liquid Middlebrook 7H9GC broth (MiddleBrook Pharmaceuticals, Inc.) and re-suspended in a fresh OADC-supplemented MB (10 mL).
Turbidity was adjusted to match the McFarland standard No. 1 [87] containing approximately 3 × 10^8 Colony Forming Units (CFU) with MB broth. Further 1:20 dilution of the culture was performed in MB broth.
Susceptibility of MTa H37Ra was investigated in a 96-well plate format. In the experiments, sterile deionized water (300 µL) was added to all outer-perimeter wells of the plates to minimize evaporation of the medium in test wells during incubation. Each evaluated compound (100 µL) was incubated with MTa H37Ra (100 µL). Dilutions of each compound were prepared in triplicate and final concentrations varied from 1000 μg/mL to 8 μg/mL. All tested molecules were dissolved in DMSO (Sigma-Aldrich, Irvine, UK), and subsequent dilutions were made in supplemented MB broth. The plates were sealed with parafilm and incubated at 37 °C for 7 days.
Following incubation, 10% addition a water-soluble dye, the alamarBlue reagent (AbD Serotec, Kidlington, UK) was mixed into each well. This resaurin-based reagent served as an oxidation-reduction indicator of metabolic function and cellular health in cell viability bioassays.
Absorbance readings at 570 nm and 600 nm were taken, initially for background subtraction and after 24h re-incubation. The subtraction is necessary for strongly colored compounds, where the color may interfere with the interpretation of any color change. For non-interfering compounds, a blue color in a well was interpreted as absence of growth and pink color was scored as growth.
The minimum inhibitory concentration (MIC) was defined as the lowest concentration of a compound, at which no visible bacterial growth was observed. In other words, the MIC was the lowest concentration that prevented visual color change from blue to pink.

[2] = electronic properties, UV/Vis spectrophotometry of methanolic solutions; format: physicochemical; conditions: methanolic solution c = 8.0 × 10^−5 M; for log ε2 (Ch-T): charge-transfer maximum λ2 (Ch-T) = 236–238 nm; for log ε1: λ1 = 208–210 nm; for log ε3: λ3 = 278–280 nm
Text: Electronic properties of the molecules 1a–p (Table 1) were characterized by logarithms of molar absorption coefficients (log ε) of their methanolic solutions (c = 8.0 × 10^−5 M) investigated in the UV/Vis region of an electromagnetic spectrum.
Positions of these absorption bands in the spectrum were typical for derivatives of (substituted) phenylcarbamic acid and the bands were assigned as first local excitation (λ3), charge-transfer (λ2 (Ch-T)) and second local excitation (λ1) absorption maxima, respectively. The λ1 and λ2 (Ch-T) maxima of 2-alkoxy substituted compounds 1a–d and 1i–l were slightly lower compared to those of their 3-alkoxy substituted positional isomers 1e–h and 1m–p (Table 1), respectively.
The UV/Vis spectra of methanolic solutions of analyzed compounds 1a–p (c = 8.0 × 10^−5 M) were observed on the 8452A Diode Array spectrophotometer HP-8452A (Hewlett-Packard, Palo Alto, CA, USA) at 21 °C. Methanol for UV-spectroscopy (Merck, Darmstadt, Germany) was used for preparation of these solutions. Results of the UV/Vis analyses were collected and stored digitally using the ChemStation controller software (Agilent Technologies, Waldbronn, Germany). The HP-8452A apparatus measured a complete range of compounds’ spectrum from 190 nm to 820 nm.
The log ε values for presently observed absorption maxima were calculated following the Lambert-Beer’s law, which was discussed in [35], for example, and expressed by Equation (16):A = ε × c × l(16) where the A parameter represented absorbance of a compound’s solution, the ε descriptor was a molar absorption coefficient (in L/mol/cm units) and l was path length (in cm units).

[3] = surface tension, drop count method, Traube stalagmometer; format: physicochemical; conditions: aqueous solution c = 2.0 × 10^−3 M, 21 °C; water γ = 0.07259 N/m
Procedure: Surface tension (relative surface activity; γ) of aqueous solutions of the compounds 1a–p (c = 2.0 × 10^−3 M) was determined by a drop count technique using a Traube stalagmometer. All evaluated substances were able to decrease surface tension of water (γ = 0.07259 N/m) at 21 °C.
Surface tension (relative surface activity; γ) of the derivatives 1a–p was determined by a drop count method using a glassy Traube stalagmometer (Kavalier Glass, Prague, Czech Republic). Number of drops of compounds’ and reference solutions were counted between upper and lower marks of the stalagmometer. Aqueous solutions of the molecules 1a–p were prepared with distilled, deionized water (c = 2.0 × 10^−3 M). […] The drops were allowed to form at constant temperature 21 °C. The experimental procedure was described in a paper. Current measurements were done in six replicates and average γ values (in N/m units) were reported (Table 1).

[4] = test system: M. marinum CAMP 5644 (MM); test: in vitro antimycobacterial MIC, broth dilution micromethod in Middlebrook 7H9; format: cell-based, Mycobacterium marinum; conditions: Mycobacterium marinum, 504 h
[5] = test system: Mycobacterium tuberculosis CNCTC My 331/88 (identical with H37Rv and ATCC 2794; MTv H37Rv); test: in vitro antimycobacterial MIC, dilution micromethod in Šula's semisynthetic medium; format: cell-based
[6] = Mycobacterium tuberculosis, 336 h, 14-day cultivation, read-out: MIC MTv H37Rv 14-d
[7] = Mycobacterium tuberculosis, 504 h, 21-day cultivation, read-out: MIC MTv H37Rv 21-d
[8] = Mycobacterium tuberculosis, 168 h
[9] = read-out: MIC MM 21-d, 21-day cultivation, 28 °C

| SMILES | MIC [1] | log ε2 (Ch-T) [2] | log ε1 [2] | log ε3 [2] | surface tension γ (relative surface activity) [3] | MIC ([4]; 21-day cultivation, 28 °C, read-out: MIC MM 21-d) | MIC [5, 6] | MIC [5, 7] | MIC [1, 8] | MIC [4, 9] | MIC ([5]; 14-day cultivation, read-out: MIC MTv H37Rv 14-d) | MIC ([5]; 21-day cultivation, read-out: MIC MTv H37Rv 21-d) |
| --- | --- | --- | --- | --- | --- | --- | --- | --- | --- | --- | --- | --- |
| CCCCCCCOc1cccc(NC(=O)OC(CN(CCC)CCC)CN2CCCCCC2)c1.O=C(O)C(=O)O (stereo not shown) [1l, 1-[2-[({[3-(hept-yloxy)phenyl]amino}carbonyl)oxy]-3-(dipropylammonio)propyl]azepanium oxalate] | 96 µM | 4.14 | 4.44 | 3.59 | 0.05853 N/m | 191 µM | 4 µM | 8 µM | – | – | – | – |
| CCCCOc1cccc(NC(=O)OC(CN(CCC)CCC)CN2CCCCCC2)c1 (stereo not shown) [1m] | – | 4.09 | 4.52 | 3.44 | 0.06298 N/m | – | 8 µM (≈ 3.58 µg/mL) | 16 µM (≈ 7.16 µg/mL) | 15.4 µM (≈ 6.89 µg/mL) | 15.4 µM (≈ 6.89 µg/mL) | – | – |
| CCCCCOc1cccc(NC(=O)OC(CN(CCC)CCC)CN2CCCCCC2)c1.Cl.Cl (stereo not shown) [1n, 1-[2-[({[3-(pentyloxy)phenyl]amino}carbonyl)oxy]-3-(di-propylammonio)propyl]azepanium dichloride] | – | 4.18 | 4.56 | 3.52 | 0.06154 N/m | – | 4 µM | 8 µM | 7.5 µM | 15 µM | – | – |
| CCCCCCOc1cccc(NC(=O)OC(CN(CCC)CCC)CN2CCCCCC2)c1.Cl.Cl (stereo not shown) [1o, 1-[2-[({[3-(hexyloxy)phenyl]amino}-carbonyl)oxy]-3-(dipropylammonio)propyl]azepanium dichloride] | – | 4.01 | 4.52 | 3.37 | 0.05925 N/m | – | 8 µM | 16 µM | 7.3 µM | 7.3 µM | – | – |
| CCCCCCCOc1cccc(NC(=O)OC(CN(CCC)CCC)CN2CCCCCC2)c1.Cl.Cl (stereo not shown) [1p, 1-[2-[({[3-(heptyloxy)phenyl]amino}carbonyl)-oxy]-3-(dipropylammonio)propyl]azepanium dichloride] | 7.1 µM | 4.20 | 4.65 | 3.56 | 0.05692 N/m | – | – | – | – | 7.1 µM | 4 µM | 8 µM |
